Experimental data from patent US9693551B2, “Pesticidal dispersible concentrate formulations” (Valent U.S.A., Corporation, priority 2013, dated 2017).

How the values were obtained:
Format in all cases: in vivo
Rhizoctonia = assay: Efficacy on corn seed in Ohio, soil inoculated with Rhizoctonia
Procedure: Corn seeds were treated with 1 fluid ounce per one hundred weight (fl oz/cwt) of the Formulations of Examples 1 and 4 prior to being planted in Ohio. Untreated seeds were planted to assess the disease impact in stand establishment. Besides the control, commercially available and known fungicides were applied to determine the effectiveness of formulations of the present invention.
At planting, the soil was inoculated with a fungus of the genus Rhizoctonia, a common corn plant pathogen that causes rot disease, to assess field performance and seedling protection of the above formulas.
“Plants per acre” was determined to establish stand density. Stand Density of Ohio Corn Plants after Seed Treatment.”

Fusarium = assay: Efficacy on corn seed in Illinois, soil inoculated with Fusarium; details: for Plants per acre 14DAP / Plants per acre 28DAP: Fusarium-inoculated soil; for Plants per acre 14DAP: 14 days after planting; for Plants per acre 28DAP: 28 days after planting; for % disease: number of plants with Fusarium infection
Procedure: Corn seeds were treated with 1 fluid ounce per one hundred weight (fl oz/cwt) or 65 mls/100 kg seed of the Formulations of Examples 1 and 4 prior to being planted in Illinois. Untreated seeds (“UTC”) were planted to assess the disease impact in stand establishment. Besides the control, commercially available and known fungicides were applied to determine the effectiveness of formulations of the present invention. Maxim® XL (Maxim is a registered trademark of Syngenta) is a fungicide containing 21% fludioxonil and 8.4% mefenoxam in a proprietary formulation. Apron XL® (Apron XL is a registered trademark of Syngenta) is fungicide containing 33.3% of mefenoxam in a proprietary formulation. Metalaxyl was applied in a 30.1% formulation and metconazole was applied in an approximately 40% dispersion with approximately 4% glycerine and other inert ingredients.
At planting, the soil was inoculated with a fungus of the genus Fusarium, a common corn plant pathogen that causes stalk rot disease, to assess field performance and seedling protection of the above formulas.
“Plants per acre” was determined to establish stand density. “% disease” was calculated by observing number of plants with Fusarium infection. The “height (cm) on roots” was determined. Stand Density and % Disease of Illinois Corn Plants after Seed Treatment.”

Corn seeds = assay: Efficacy on corn seeds in Mississippi (emergence and yield)

COCC(=O)N(c1c(C)cccc1C)C(C)C(=O)OC (centres unmarked) [Metalaxyl, metalaxyl]
Plants per acre 14DAP (Rhizoctonia): 22400 plants per acre | Plants per acre 28DAP (Rhizoctonia): 28700 plants per acre | Height (cm) on roots (Fusarium): 61.0 cm | Plants per acre 14DAP (Fusarium): 25352 plants per acre | Plants per acre 28DAP (Fusarium): 26049 plants per acre | % disease (Fusarium): 18.0% | Yield (bu/A) (Corn seeds): 154 bu/A | Yield (kg/hectare) (Corn seeds): 9662.3 kg/hectare | % Emergence 20DAP (Corn seeds): 91.5% | % Emergence 35DAP (Corn seeds): 83.3%

CC1(C)CCC(Cc2ccc(Cl)cc2)C1(O)Cn1cncn1 (centres unmarked) [Metconazole, metconazole]
Plants per acre 14DAP (Rhizoctonia): 28875 plants per acre | Plants per acre 28DAP (Rhizoctonia): 28700 plants per acre | Height (cm) on roots (Fusarium): 57.3 cm | Plants per acre 14DAP (Fusarium): 28401 plants per acre | Plants per acre 28DAP (Fusarium): 29011 plants per acre | % disease (Fusarium): 37.6% | Yield (bu/A) (Corn seeds): 155.5 bu/A | Yield (kg/hectare) (Corn seeds): 9756.4 kg/hectare | % Emergence 20DAP (Corn seeds): 80.8% | % Emergence 35DAP (Corn seeds): 84.8%
